Results as given in patent US9585382B2, “Composition comprising a pesticide and an acetal solvent” (priority 2011, dated 2017).
In brackets after ≈: the same amount, converted by molar mass. Blank lines part the entries; values can stand above or below the compound they belong to.

Legend:
physchem = conditions: for solubility: 20 °C, organic solvent or mixture
Description: A) Pyraclostrobin was added at 20° C. to benzaldehyde dimethyl acetal or p-anisaldehyde dimethyl acetal, with stirring.

[1] = Flash point (DIN 53213-1); type: physicochemical; conditions: measured as specified in DIN 53213-1
[2] = EU directive 67/548/EEC, 1999/45/EC or 88/379/EEC; cited from earlier work
[3] = Description: The solubility of benzaldehyde dimethyl acetal or p-anisaldehyde dimethyl acetal in water at 20° C. was analyzed.
Viscosity = type: physicochemical; conditions: 20° C.

- solubility (physchem; maximum solubility in Solvesso 150 ND): 19 mg/mL (≈ 46.1 mM)
- solubility (physchem; maximum solubility in Solvesso 200 ND): 63 mg/mL (≈ 153 mM)
- solubility (physchem; maximum solubility in p-anisaldehyde dimethyl acetal): 214 mg/mL (≈ 519 mM)
SMILES: C#CCN1C(=O)C(F)(F)Oc2cc(F)c(-n3c(=O)n(C)c(=S)n(C)c3=O)cc21 [1,5-dimethyl-6-thioxo-3-(2,2,7-trifluoro-3-oxo-4-(prop-2-ynyl)-3,4-dihydro-2H-benzo[b][1,4]oxazin-6-yl)-1,3,5-triazinan-2,4-dione]

SMILES: COC(OC)c1ccccc1 [Benzaldehyde dimethyl acetal, reference compound]
- flash point [1]: 69 °C
- EU R phrase [2]: R22—harmful if swallowed
- EU hazard classification [2]: Xn—harmful

SMILES: COC(=O)N(OC)c1ccccc1COc1ccn(-c2ccc(Cl)cc2)n1 [Pyraclostrobin, reference compound]
- solubility in benzaldehyde dimethyl acetal (physchem; 20° C., with stirring, solvent benzaldehyde dimethyl acetal (not inventive)): at least 50 % by weight
- solubility in p-anisaldehyde dimethyl acetal (physchem; 20° C., with stirring, solvent p-anisaldehyde dimethyl acetal): at least 50 % by weight

- flash point [1]: 114 °C
- solubility in water [3]: ≤ 0.1 % by weight
- viscosity (Viscosity): 5.5 mPas
SMILES: COc1ccc(C(OC)OC)cc1 [p-Anisaldehyde dimethyl acetal]
- EU R phrase [2]: without R phrase
- EU hazard classification [2]: without classification
